Experimental data published in patent US7449454B2, “Metallotexaphyrin derivatives” (Pharmacyclics, Inc., priority 2000, dated 2008).

Tests used:
[1] = Extinction coefficient by UV/Vis; type: physicochemical; conditions: for ε(methanol): in M-1·cm-1 (unit assumed)
Description: Four samples of increasing amounts of a test compound of Formula I (between 3 mg and 11 mg) were put into separate 10 ml flasks and dissolved in methanol. Each of the solutions and one control sample (containing no test compound) were diluted to volume. The absorption at 475 nm was measured by UV/Vis and recorded for each of the five samples. The extinction coefficient for each sample was determined accordingly.
The extinction coefficient for the test compound at 475 nm was determined by averaging the extinction coefficient for the four samples (not including the control). The above steps were repeated (at 733 nm) to determine the extinction coefficient for the test compound at 733 nm. When determining the extinction coefficient of aggregated test compounds LuTex acetate, cholate or deoxycholate, the extinction coefficient at 733 nm is not measured. Instead, the above steps were repeated substituting 4% acetic acid/methanol for methanol.

[2] = Solution pH in deionized water; type: physicochemical; conditions: H2O
Description: The test compound was mixed in 5 ml of deionized water to achieve a 2 mg/ml solution. The solution pH was measured using a Beckman pH meter.

[3] = Octanol/water partition coefficient; type: physicochemical
Description: The partition coefficient was measured using an adaptation of the procedure outlined in Drug Stability: Principles and Practices (AAI, Inc. Wilmington, N.C., 2nd Edition, 1995). A 10 ml solution of 10 mg/ml of the test compound of Formula I dissolved in deionized water was placed in a separator funnel, to which 10 ml of 1-octanol was added. The combined mixture was stirred. The mixture was left to separate and the absorption of the compound was measured in the water phase and in the octanol phase by UV/Vis at 413-417 nm (413-417 offers the closest match in absorbance between the octanol phase and the water phase. The octanol water partition coefficient is determined by the formula: […]
The above steps were then repeated using a 10 ml sample of test compound at 1.0 mg/ml.

[4] = Plasma concentration after injection in atherosclerotic rabbits; type: in vivo, NZW rabbits; conditions: rabbit, 10 mg/kg injected, 2 mg/ml solution
Description: Plasma pK and biodistribution of the different test compounds of Formula I in plaque are determined and compared with the plasma pK and biodistribution in normal arterial walls. Sixteen normal male NZW rabbits, each weighing 3.5-4.0 kg are obtained from R&R Rabbitry in Stanwood Oreg. Each rabbit is given an intramuscular injection of Ketamine/Rompun [(8.4 mg/kg)/(1.2 mg/kg)] and allowed to relax until the anesthetic takes effect. To induce deep anesthesia, the rabbits then receive a second dose of Ketamine/Rompun [(8.4 mg/kg)/1.2 mg/kg)] via intravenous injection. To expose the abdomen and back legs, each rabbit is shaved with a size 40 blade. Their eyes are coated with lubricant eye ointment (Artificial Tears).
A femoral artery cut down is performed on the right side of the rabbits. Lidocaine (2%) is injected subcutaneously around the femoral artery as a local anesthetic and also applied topically to prevent spasms. A No.4 French Fogarty balloon embolectomy catheter is inserted retrograde 15 cm into the abdominal aorta. The balloon is inflated with 0.5-0.75 ml of hypaque contrast and pulled 3.5 cm distally toward the femoral artery six times. The catheter is then withdrawn. […]
A 3 ml blood sample is taken from each of the rabbits and the cholesterol level for each sample is determined and recorded. […]
The clearance rate of the test compound is also particularly important to measure. Plasma samples from each of the test compounds (see part A of this example) are mixed with 10 mM Triton X-100 and the fluorescence optimum is measured at 745 nm by scanning between 700-800 nm using a 450 nm excitation. A standard curve is run to insure that the fluorescence of the samples lies on the linear portion of the curve. The entire fluorescence emission spectrum is observed by using both a monochromator and CCD array. This permits differentiating between the peak at 745 nm and any possible extraneous fluorescence that might have a different optimum, and tail off into the 745 nm region. Test compound accumulation is expressed as μg drug/g tissue (wet weight) or μg/ml in plasma.

[5] = Solubility in H2O (deionized water)
Description: This mixture was then shaken, and 1.5 ml of the supernatant removed by a syringe equipped with a 0.22 μm filter unit. After discarding the first 1 mL of the filtrate, the remaining 0.5 mL was collected and saved. 0.1 ml of the saved filtrate was added to a 25 ml flask and diluted with 4% Acetic Acid/Methanol solution to volume. The absorption of the diluted solution at 475 nm was measured by UVN is at 1, 4, and 24 hours after the solutions had been shaken as described above.

Substance	ε(4% acetate/methanol) ([1]; 4% acetate/methanol, wavelength not given) [M⁻¹ cm⁻¹]	ε(methanol) ([1]; wavelength not printed (aggregated compound, 733 nm not measured))	ε(methanol) ([1]; at 475 nm)	ε(methanol) ([1]; at 733 nm)	pH [2]	K (octanol/water) ([3]; 0.05 mg/ml)	pH(octanol/water) ([3]; 0.05 mg/ml)	K (octanol/water) ([3]; 0.5 mg/ml)	pH(octanol/water) ([3]; 0.5 mg/ml)	Plasma Concentration ([4]; 1 Hour post injection) [ng/mL]	Plasma Concentration ([4]; 5 Hours post injection) [ng/mL]	Plasma Concentration ([4]; 24 Hours post injection) [ng/mL]	solubility in deionized water [5] [mg/mL]
The lutetium (III) complex of: 4,5-diethyl-10,23-dimethyl-9,24-bis(3-hydroxypropyl)-16,17-bis[2-[2-(2-methoxyethoxy)ethoxy]ethoxy]pentaazapentacyclo[20.2.1.1^3,6.1^8,11.0^14,19]-heptacosa-1,3,5,7,9,11 (27),12,14,16,18,20,22(25),23-tridecaene bis deoxycholate [LuTex bis deoxycholate]	135000	136000	–	–	–	–	–	–	–	–	–	–	–
The lutetium (III) complex of: 4,5-diethyl-10,23-dimethyl-9,24-bis(3-hydroxypropyl)-16,17-bis[2-[2-(2-methoxyethoxy)ethoxy]ethoxy]pentaazapentacyclo[20.2.1.1^3,6.1^8,11.0^14,19]-heptacosa-1,3,5,7,9,11(27),12,14,16,18,20,22(25), 23-tridecaene bis benzoate [LuTex bis benzoate]	–	–	122800	40600	6.1	0.34	6.6	–	–	–	–	–	–
The lutetium (III) complex of: 4,5-diethyl-10,23-dimethyl-9,24-bis(3-hydroxypropyl)-16,17-bis[2-[2-(2-methoxyethoxy)ethoxy]ethoxy]pentaazapentacyclo[20.2.1.1^3,6.1^8,11.0^14,19]-heptacosa-1,3,5,7,9,11(27),12,14,16,18,20,22(25), 23-tridecaene bis formate [LuTex bis formate]	–	–	126400	41700	5.5	0.02	5.6	0.02	5.1	3900	500	300	2 to 2.5
lutetium complex of 4,5-diethyl-10,23-dimethyl-9,24-bis(3-hydroxypropyl)-16,17-bis[2-[2-(2-methoxyethoxy)ethoxy]ethoxy]pentaazapentacyclo-[20.2.1.1^3,6.1^8,11.0^14,19]heptacosa-1,3,5,7,9,11(27),12,14,16,18,20,22(25),23-tridecaene bis gluconate [LuTex bis gluconate]	–	–	–	–	–	–	–	–	–	–	–	–	50 to 80
